Measured values as given in ChEMBL document CHEMBL4831526, “Cytotoxic Guaianolide Sesquiterpenoids from Ainsliaea fragrans” (J Nat Prod, 2021).
pIC50: −log10 of the molar value.

How the values were obtained:
Type in all cases: functional, cell-based
[1] = test system: C6; assay: Cytotoxicity against rat C6 cells assessed as reduction in cell viability incubated for 72 hrs by Celltiter-Glo assay; conditions: C6, 72 h
[2] = test system: Huh-7; assay: Cytotoxicity against human Huh-7 cells assessed as reduction in cell viability incubated for 72 hrs by Celltiter-Glo assay; conditions: Huh-7, 72 h
[3] = Cytotoxicity against human HCCLM3 cells assessed as reduction in cell viability incubated for 72 hrs by Celltiter-Glo assay; conditions: HCCLM3, 72 h
[4] = test system: PANC-1; assay: Cytotoxicity against human PANC-1 cells assessed as reduction in cell viability incubated for 72 hrs by Celltiter-Glo assay; conditions: PANC-1, 72 h
[5] = test system: HeLa; assay: Cytotoxicity against human HeLa cells assessed as reduction in cell viability incubated for 72 hrs by Celltiter-Glo assay

| Compound | pIC50 [1] | pIC50 [2] | pIC50 [3] | pIC50 [4] | pIC50 [5] |
| --- | --- | --- | --- | --- | --- |
| C=C1C(=O)C2=C3[C@@H](CC[C@H]4C(=C)C(=O)O[C@@H]4[C@@H]13)CC[C@]21C(=O)C[C@H]2C(=C)CC[C@H]3C(=C)C(=O)O[C@@H]3[C@H]21 | 5.19 | < 5.00 | < 5.00 | < 5.00 | < 5.00 |
| C=C1C(=O)O[C@@H]2[C@@H]3C4=C(C(=O)[C@H]3C)[C@]3(CC[C@@]4(O)CC[C@@H]12)C(=O)C[C@H]1C(=C)CC[C@@H]2[C@H](OC(=O)[C@H]2C)[C@H]13 | 5.51 | 5.39 | < 5.00 | 5.31 | 5.19 |
| C=C1C(=O)O[C@@H]2[C@@H]3C4=C(C(=O)[C@H]3CO)[C@]3(CC[C@]4(O)CC[C@@H]12)C(=O)C[C@H]1C(=C)CC[C@H]2C(=C)C(=O)O[C@@H]2[C@H]13 | < 5.00 | < 5.00 | < 5.00 | < 5.00 | < 5.00 |
| C=C1C(=O)C2=C3[C@H]1[C@H]1OC(=O)C(CO)=C1CC[C@]3(O)CC[C@]21C(=O)C[C@H]2C(=C)CC[C@H]3C(=C)C(=O)O[C@@H]3[C@H]21 | 5.00 | < 5.00 | < 5.00 | < 5.00 | < 5.00 |
| C=C1C(=O)C2=C3[C@H]1[C@H]1OC(=O)C(=C)[C@@H]1CC[C@]3(O)CC[C@]21C(=O)[C@H](C[C@@H]2C(=O)C[C@H]3C(=C)CC[C@H]4C(=C)C(=O)O[C@@H]4[C@@H]23)[C@H]2C(=C)CC[C@H]3C(=C)C(=O)O[C@@H]3[C@H]21 | 6.15 | 5.60 | 5.08 | 6.40 | 5.89 |
| C=C1C(=O)C2=C3[C@H](CC[C@H]4C(=C)C(=O)O[C@@H]4[C@@H]13)CC[C@]21C(=O)C[C@H]2C(=C)CC[C@H]3C(=C)C(=O)O[C@@H]3[C@H]21 | < 5.00 | < 5.00 | < 5.00 | < 5.00 | < 5.00 |
| C=C1C(=O)C2=C3[C@H]1[C@H]1OC(=O)C(=C)[C@@H]1CC[C@@]3(O)CC[C@]21C(=O)C[C@H]2C(=C)CC[C@H]3C(=C)C(=O)O[C@@H]3[C@H]21 | < 5.00 | < 5.00 | < 5.00 | 5.27 | < 5.00 |
| C=C1C(=O)C2=C3[C@H](CC[C@H]4C(=C)C(=O)O[C@@H]4[C@@H]13)CC[C@@]21C(=O)C2=C3[C@H]1[C@H]1OC(=O)C(=C)[C@@H]1CC[C@@]3(O)CC[C@]21C(=O)C[C@H]2C(=C)CC[C@H]3C(=C)C(=O)O[C@@H]3[C@H]21 | 5.68 | 5.12 | < 5.00 | 5.60 | 5.15 |
| C=C1C(=O)C2=C3[C@H]1[C@H]1OC(=O)C(=C)[C@@H]1CC[C@]3(O)CC[C@]21C(=O)C[C@H]2C(=C)CC[C@H]3C(=C)C(=O)O[C@@H]3[C@H]21 | 5.92 | 5.60 | < 5.00 | 5.66 | 5.55 |
| C=C1C(=O)O[C@@H]2[C@@H]3[C@@H](C[C@@]4(O)[C@]3(O)CC[C@]43C(=O)C[C@H]4C(=C)CC[C@H]5C(=C)C(=O)O[C@@H]5[C@H]43)C(=C)CC[C@@H]12 | 5.37 | 5.36 | < 5.00 | 5.00 | 5.28 |
